The results in this text go back to US12653187B2, “Sulfur based pesticides” (AGRONATURALIS LTD, priority 2019, dated 2026).

This series is described as follows: Surface tension and equilibrium contact angle by drop shape analyser (Example 7). Format: physicochemical. The procedure: The wetting properties of the individual surfactants and in combination were evaluated by dissolving the surfactants at various concentrations in deionised water. Surface tension and equilibrium contact angle were measured in triplicate using a drop shape analyser with results given in Table 9 below.

Take `CCCCC(CC)COC(=O)CC(C(=O)OCC(CC)CCCC)S(=O)(=O)[O-].[Na+]` (stereo not shown) [sodium dioctylsulfosuccinate]: the “contact angle (°)” value reads like this: (0.005 % w/w in deionised water) 54.1 °; (0.010 % w/w in deionised water) 38.2 °; (0.025 % w/w in deionised water) 35.4 °; (0.050 % w/w in deionised water) 31.5 °; (0.100 % w/w in deionised water) 28.7 °; (0.200 % w/w in deionised water) 24.4 °. The “contact angle (°)” value reads like this: (0.250 % w/w in deionised water) 22.8 °; (0.500 % w/w in deionised water) 21.4 °. The “surface tension (mN/m)” value reads like this: (0.005 % w/w in deionised water) 44.3 mN/m; (0.010 % w/w in deionised water) 43.6 mN/m; (0.025 % w/w in deionised water) 34.7 mN/m; (0.050 % w/w in deionised water) 32.2 mN/m; (0.100 % w/w in deionised water) 28.3 mN/m; (0.200 % w/w in deionised water) 26.8 mN/m. Moreover, the “surface tension (mN/m)” value by setting is: (0.250 % w/w in deionised water) 26.1 mN/m; (0.500 % w/w in deionised water) 25.3 mN/m.
In the case of `CCCCCCCCCCCCOS(=O)(=O)[O-].[Na+]` [sodium lauryl sulfate], the “contact angle (°)” value runs as follows: (0.005 % w/w in deionised water) 107.1 °; (0.025 % w/w in deionised water) 72.8 °; (0.050 % w/w in deionised water) 63.9 °; (0.100 % w/w in deionised water) 55.3 °; (0.200 % w/w in deionised water) 51.5 °; (0.250 % w/w in deionised water) 50.6 °. The “surface tension (mN/m)” value (0.005 % w/w in deionised water) came to 70.6 mN/m; the “surface tension (mN/m)” value (0.025 % w/w in deionised water) was 56.8 mN/m; the “surface tension (mN/m)” value (0.050 % w/w in deionised water) amounted to 46.1 mN/m; the “surface tension (mN/m)” value (0.100 % w/w in deionised water) is 37.2 mN/m; the “surface tension (mN/m)” value (0.200 % w/w in deionised water) was 34.2 mN/m; the “surface tension (mN/m)” value (0.250 % w/w in deionised water) came to 33.4 mN/m.
